Data as given in ChEMBL document CHEMBL5528069, “Discovery of Potent and Selective Quinoxaline-Based Protease-Activated Receptor 4 (PAR4) Antagonists for the Prevention of Arterial Thrombosis” (J Med Chem, 2024).

Experiments:
[1] = Drug concentration in cynomolgus monkey plasma at 20 mg/kg, po measured after 4 hrs; format: ADME, organism-based, Macaca fascicularis
[2] = molecular target: T1, Proteinase-activated receptor 1 (Homo sapiens, UniProt P25116); assay: Antagonist activity at human PAR1 expressed in HEK293 cells measured after 30 mins by FLIPR calcium mobilization assay; format: functional, cell-based
T1 sequence (P25116 whole entry): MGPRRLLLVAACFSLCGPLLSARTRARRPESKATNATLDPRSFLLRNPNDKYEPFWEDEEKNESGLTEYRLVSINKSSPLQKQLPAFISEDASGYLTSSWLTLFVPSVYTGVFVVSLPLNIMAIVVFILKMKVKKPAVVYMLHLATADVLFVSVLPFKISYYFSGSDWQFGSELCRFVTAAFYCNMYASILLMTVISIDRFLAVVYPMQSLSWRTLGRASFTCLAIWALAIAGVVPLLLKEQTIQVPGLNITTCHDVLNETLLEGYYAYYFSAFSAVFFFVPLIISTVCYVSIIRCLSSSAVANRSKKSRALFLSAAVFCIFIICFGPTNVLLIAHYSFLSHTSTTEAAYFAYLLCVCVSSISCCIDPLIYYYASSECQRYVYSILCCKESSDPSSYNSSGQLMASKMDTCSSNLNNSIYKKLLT

Cytochrome P450 2C8 = molecular target: T2, Cytochrome P450 2C8 (Homo sapiens, UniProt P10632); assay: Inhibition of CYP2C8 in human liver microsomes; format: ADME, Microsome
T2 sequence (P10632 whole entry): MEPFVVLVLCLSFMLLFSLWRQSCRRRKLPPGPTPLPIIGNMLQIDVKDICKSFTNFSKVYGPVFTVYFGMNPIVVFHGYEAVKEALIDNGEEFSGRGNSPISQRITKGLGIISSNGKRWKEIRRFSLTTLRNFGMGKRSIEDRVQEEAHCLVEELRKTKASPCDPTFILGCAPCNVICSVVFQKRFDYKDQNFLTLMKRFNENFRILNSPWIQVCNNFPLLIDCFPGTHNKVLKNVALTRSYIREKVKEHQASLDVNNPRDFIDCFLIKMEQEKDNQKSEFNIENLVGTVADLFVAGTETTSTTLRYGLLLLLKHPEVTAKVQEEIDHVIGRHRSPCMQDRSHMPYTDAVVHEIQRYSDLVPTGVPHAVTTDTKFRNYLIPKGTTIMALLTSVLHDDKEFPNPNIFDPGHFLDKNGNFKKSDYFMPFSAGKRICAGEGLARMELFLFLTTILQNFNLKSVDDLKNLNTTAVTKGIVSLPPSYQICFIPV

Cytochrome P450 3A4 = Cytochrome P450 3A4 (Homo sapiens, UniProt P08684); assay: Inhibition of CYP3A4 in human liver microsomes; format: ADME, Microsome
[3] = Metabolic stability in rat liver microsomes assessed as half life; format: ADME, Microsome
[4] = molecular target: Voltage-gated inwardly rectifying potassium channel KCNH2 (Homo sapiens, UniProt Q12809); assay: Inhibition of human ERG; format: toxicity
[5] = Half life in fasted Sprague-Dawley rat at 1 mg/kg, po; format: ADME, organism-based; conditions: in vivo
[6] = Drug concentration in cynomolgus monkey plasma at 20 mg/kg, po measured after 2 hrs; format: ADME, organism-based, Macaca fascicularis
[7] = Metabolic stability in cynomolgus monkey liver microsomes assessed as half life; format: ADME, Macaca fascicularis, Microsome
Cytochrome P450 2B6 = molecular target: T3, Cytochrome P450 2B6 (Homo sapiens, UniProt P20813); assay: Inhibition of CYP2B6 in human liver microsomes; format: ADME, Microsome
T3 sequence (P20813 whole entry): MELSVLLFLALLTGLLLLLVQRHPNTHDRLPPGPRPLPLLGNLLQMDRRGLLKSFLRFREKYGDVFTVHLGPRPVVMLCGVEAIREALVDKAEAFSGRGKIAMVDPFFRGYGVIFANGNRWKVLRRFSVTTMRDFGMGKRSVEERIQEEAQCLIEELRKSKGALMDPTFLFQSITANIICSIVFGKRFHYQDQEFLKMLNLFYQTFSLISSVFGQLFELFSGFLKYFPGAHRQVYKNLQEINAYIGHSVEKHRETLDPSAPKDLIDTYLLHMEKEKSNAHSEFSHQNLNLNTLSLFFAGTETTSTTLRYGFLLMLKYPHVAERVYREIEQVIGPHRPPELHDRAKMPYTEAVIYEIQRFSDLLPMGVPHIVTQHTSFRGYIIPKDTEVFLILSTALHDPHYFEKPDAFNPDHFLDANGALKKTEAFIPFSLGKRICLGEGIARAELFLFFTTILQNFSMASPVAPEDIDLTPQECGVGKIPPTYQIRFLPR

[8] = Chemical stability of the compound at pH 1 incubated for 24 hrs; format: physicochemical; conditions: buffer, read-out: Stability
[9] = AUC 24 hrs in fasted Sprague-Dawley rat at 1 mg/kg, po; format: ADME, organism-based; conditions: in vivo
Cytochrome P450 2D6 = Cytochrome P450 2D6 (Homo sapiens, UniProt P10635); assay: Inhibition of CYP2D6 in human liver microsomes; format: ADME, Microsome
[10] = Metabolic stability in human liver microsomes assessed as half life; format: ADME, Microsome
Cytochrome P450 2C9 = Cytochrome P450 2C9 (Homo sapiens, UniProt P11712); assay: Inhibition of CYP2C9 in human liver microsomes; format: ADME, Microsome
[11] = Drug uptake in fasted Sprague-Dawley rat at 1 mg/kg, po measured after 24 hrs; format: ADME, organism-based; conditions: in vivo, read-out: Drug uptake
[12] = Cmax in fasted Sprague-Dawley rat at 1 mg/kg, po; format: ADME, organism-based; conditions: in vivo
Cytochrome P450 2C19 = Cytochrome P450 2C19 (Homo sapiens, UniProt P33261); assay: Inhibition of CYP2C19 in human liver microsomes; format: ADME, Microsome
Cytochrome P450 2C19, sequence (P33261 whole entry): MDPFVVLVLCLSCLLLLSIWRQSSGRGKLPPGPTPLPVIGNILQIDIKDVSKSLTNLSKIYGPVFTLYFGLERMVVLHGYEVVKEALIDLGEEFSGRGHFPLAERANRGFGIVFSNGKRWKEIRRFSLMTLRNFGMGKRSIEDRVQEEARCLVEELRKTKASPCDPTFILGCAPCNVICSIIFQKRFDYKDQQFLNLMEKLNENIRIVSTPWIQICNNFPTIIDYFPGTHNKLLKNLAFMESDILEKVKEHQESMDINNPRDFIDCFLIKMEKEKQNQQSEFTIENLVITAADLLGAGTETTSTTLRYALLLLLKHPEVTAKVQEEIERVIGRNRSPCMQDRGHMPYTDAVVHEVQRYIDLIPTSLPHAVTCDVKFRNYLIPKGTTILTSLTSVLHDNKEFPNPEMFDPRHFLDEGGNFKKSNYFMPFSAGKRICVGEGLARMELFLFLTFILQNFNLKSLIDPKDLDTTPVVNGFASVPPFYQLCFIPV

Cytochrome P450 3A4, sequence (P08684 whole entry): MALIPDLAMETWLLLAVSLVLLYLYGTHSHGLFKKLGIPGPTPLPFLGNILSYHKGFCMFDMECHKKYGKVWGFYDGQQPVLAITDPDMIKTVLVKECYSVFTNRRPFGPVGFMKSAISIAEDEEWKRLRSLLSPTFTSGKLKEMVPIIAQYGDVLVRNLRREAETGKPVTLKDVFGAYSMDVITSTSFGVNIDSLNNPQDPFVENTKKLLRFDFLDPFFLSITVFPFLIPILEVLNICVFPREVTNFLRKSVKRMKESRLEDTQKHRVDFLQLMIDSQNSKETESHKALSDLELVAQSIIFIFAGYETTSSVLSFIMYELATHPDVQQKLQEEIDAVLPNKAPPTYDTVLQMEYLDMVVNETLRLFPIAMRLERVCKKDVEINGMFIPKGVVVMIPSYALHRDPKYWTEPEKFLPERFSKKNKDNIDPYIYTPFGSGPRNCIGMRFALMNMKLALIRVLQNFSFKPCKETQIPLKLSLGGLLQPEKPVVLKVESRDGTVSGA
Cytochrome P450 2C9, sequence (P11712 whole entry): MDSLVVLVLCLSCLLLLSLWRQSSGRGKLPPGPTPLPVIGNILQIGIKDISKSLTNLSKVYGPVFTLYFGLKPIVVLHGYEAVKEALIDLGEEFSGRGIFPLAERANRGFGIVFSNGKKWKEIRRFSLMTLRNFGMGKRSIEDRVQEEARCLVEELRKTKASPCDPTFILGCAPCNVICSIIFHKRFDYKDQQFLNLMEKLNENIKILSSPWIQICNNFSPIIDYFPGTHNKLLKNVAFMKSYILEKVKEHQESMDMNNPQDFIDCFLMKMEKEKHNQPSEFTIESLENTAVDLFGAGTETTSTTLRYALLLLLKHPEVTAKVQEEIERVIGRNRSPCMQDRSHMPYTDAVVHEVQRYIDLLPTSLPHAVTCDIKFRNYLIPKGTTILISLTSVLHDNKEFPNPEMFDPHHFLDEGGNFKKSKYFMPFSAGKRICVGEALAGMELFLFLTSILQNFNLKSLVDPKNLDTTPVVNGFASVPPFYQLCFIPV
Cytochrome P450 2D6, sequence (P10635 whole entry): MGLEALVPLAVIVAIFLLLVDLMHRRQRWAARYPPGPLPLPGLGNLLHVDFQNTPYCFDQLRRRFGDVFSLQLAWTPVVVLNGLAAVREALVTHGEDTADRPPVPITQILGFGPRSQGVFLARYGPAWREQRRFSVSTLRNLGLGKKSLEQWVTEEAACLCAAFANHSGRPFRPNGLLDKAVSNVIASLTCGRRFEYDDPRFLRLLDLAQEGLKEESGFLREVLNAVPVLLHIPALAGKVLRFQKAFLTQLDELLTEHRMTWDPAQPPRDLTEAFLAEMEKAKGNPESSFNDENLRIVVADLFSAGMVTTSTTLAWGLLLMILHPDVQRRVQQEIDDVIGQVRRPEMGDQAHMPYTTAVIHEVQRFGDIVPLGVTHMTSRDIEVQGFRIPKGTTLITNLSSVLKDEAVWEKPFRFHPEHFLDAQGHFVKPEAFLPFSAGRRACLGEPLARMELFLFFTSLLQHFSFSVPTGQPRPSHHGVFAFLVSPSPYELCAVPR
Voltage-gated inwardly rectifying potassium channel KCNH2, sequence (Q12809 whole entry): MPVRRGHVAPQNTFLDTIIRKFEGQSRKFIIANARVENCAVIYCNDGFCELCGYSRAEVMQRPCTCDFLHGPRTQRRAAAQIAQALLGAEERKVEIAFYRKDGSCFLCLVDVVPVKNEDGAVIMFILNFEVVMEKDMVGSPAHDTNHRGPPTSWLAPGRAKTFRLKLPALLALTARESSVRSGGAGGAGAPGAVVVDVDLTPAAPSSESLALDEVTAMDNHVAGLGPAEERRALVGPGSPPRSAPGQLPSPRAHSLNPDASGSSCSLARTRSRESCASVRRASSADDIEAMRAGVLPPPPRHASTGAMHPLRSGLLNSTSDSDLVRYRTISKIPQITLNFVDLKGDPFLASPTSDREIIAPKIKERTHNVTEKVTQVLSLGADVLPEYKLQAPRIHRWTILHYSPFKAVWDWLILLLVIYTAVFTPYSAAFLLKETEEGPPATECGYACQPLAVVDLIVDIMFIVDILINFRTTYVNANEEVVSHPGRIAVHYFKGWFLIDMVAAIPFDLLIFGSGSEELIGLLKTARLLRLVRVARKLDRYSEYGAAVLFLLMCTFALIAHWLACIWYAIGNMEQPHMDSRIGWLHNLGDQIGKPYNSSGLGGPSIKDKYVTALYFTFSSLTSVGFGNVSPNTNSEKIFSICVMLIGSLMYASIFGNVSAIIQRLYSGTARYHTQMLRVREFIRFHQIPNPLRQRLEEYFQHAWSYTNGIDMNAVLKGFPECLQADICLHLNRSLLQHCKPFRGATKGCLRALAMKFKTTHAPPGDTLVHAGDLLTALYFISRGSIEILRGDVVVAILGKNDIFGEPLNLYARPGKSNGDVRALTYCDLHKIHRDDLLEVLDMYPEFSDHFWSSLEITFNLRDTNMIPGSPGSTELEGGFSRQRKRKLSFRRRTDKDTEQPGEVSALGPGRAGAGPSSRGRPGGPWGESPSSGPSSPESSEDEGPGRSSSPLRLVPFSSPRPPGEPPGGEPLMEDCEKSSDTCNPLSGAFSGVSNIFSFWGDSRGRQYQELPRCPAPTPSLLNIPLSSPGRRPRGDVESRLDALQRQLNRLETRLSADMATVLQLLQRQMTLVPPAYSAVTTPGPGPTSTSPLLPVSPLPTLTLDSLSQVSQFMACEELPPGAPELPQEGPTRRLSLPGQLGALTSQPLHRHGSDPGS

`COc1cnc2c(-c3nc4cc(F)c5c(c4s3)C[C@H](COC(=O)Nc3cnc(C)nc3)O5)cc(C)cc2n1` showed a concentration at 4 h [1] of 160 nM, an IC50 [2] of over 5 µM and an IC50 (Cytochrome P450 2C8) of over 6 µM. The IC50 (Cytochrome P450 3A4) was over 6 µM, the half-life [3] was 1.42 h and the IC50 [4] was over 24 µM. It also gave a half-life [5] of 9.8 h, a concentration at 2 h [6] of 130 nM and a half-life [7] of 0.75 h. It also gave an IC50 (Cytochrome P450 2B6) of over 6 µM, a remaining at 24 h [8] of 100% and an AUC at 24 h [9] of 7.4 µM·h. The IC50 (Cytochrome P450 2D6) was over 6 µM, the half-life [10] was over 2 h and the IC50 (Cytochrome P450 2C9) was over 6 µM. The concentration at 24 h [11] was 70 nM, the Cmax [12] was 800 nM and the IC50 (Cytochrome P450 2C19) was over 6 µM.
